In patent US11738095B2, “Cyanine-containing compounds for cancer imaging and treatment” (Emory University, priority 2007, dated 2023):
Where two headings read alike, the source gives them in different places.

Columns and labels:
[1] = system: human prostate cancer cells PC3 and ARCaPM in whole blood; assay: NIR detection of cancer cells spiked into human blood with IR783 (FIG. 17); type: cell-based
Procedure: IR783 can be used to detect and enrich disseminating cancer cells in the blood (FIG. 17). […] 5×10^3 human prostate cancer cells PC3 and ARCaPM were used to spike a 0.5 ml heparinized whole blood from a healthy donor. After incubation at 37° C. for 30 minutes, a gradient centrifugation (Histopaque-1077, Sigma) was applied to remove red blood cells. The remaining cells were washed 5 times in PBS, cells in 50 μl of the 250 μl total volume were smeared on a glass slide for NIR fluorescence detection. […] This method can detect as few as 10 human prostate cancer cells/ml of human blood, a concentration close to that of the estimated numbers of CTC as reported by previous investigators.

[2] = system: spontaneous prostate tumor in a TRAMP mouse; assay: imaging of spontaneous TRAMP prostate tumor, fresh and after fixation (FIG. 16B, C); type: in vivo
Procedure: NIR imaging studies were performed to assess pharmacokinetics of the IR783 in vivo. […] This mouse was injected i.p with 0.2 μg/kg IR783 at 0 hrs. […] The dye retention in formalin fixed tissues can be as long as several weeks (data not shown).

VEC = assay: uptake of IR783 in cell lines: vascular endothelia; type: cell-based, human
From the text: (§1) The uptake of IR783 was studied and confirmed in a variety of human cell lines as shown below: […]

[3] = system: ARCaPM, LNCaP, ARCaPE, C4-2, PC-3; assay: uptake of IR783 in cell lines: prostate; type: cell-based, human
From the text: as §1

RAW = assay: uptake of IR783 in cell lines: mouse macrophages; type: cell-based
From the text: as §1

HaCaT = assay: uptake of IR783 in cell lines: skin; type: cell-based, human
From the text: as §1

BMC = assay: uptake of IR783 in cell lines: bone marrow stroma; type: cell-based, human
From the text: as §1

RCC = assay: uptake of IR783 in cell lines: kidney; type: cell-based, human
From the text: as §1

NPF = assay: uptake of IR783 in cell lines: prostate fibroblasts; type: cell-based, human
From the text: as §1

C4-2 tumors = assay: effect of MHI-25 on pre-established C4-2 tumors in mice (FIG. 9 bottom); type: in vivo, mouse; details: 100 nmols, Day 5 after administration
P69 = assay: uptake of IR783 in cell lines: human prostate epithelia; type: cell-based
From the text: as §1

HEK293 = assay: uptake of IR783 in cell lines: human embryonic kidney epithelial normal cells; type: cell-based
From the text: as §1

C4-2 = assay: effect of MHI-25 on C4-2 cells in culture (FIG. 9 top); type: cell-based, human; details: for cell death in culture: 24 hrs
From the text: To confirm the ability of other compounds to exert cytotoxicity against the growth of human tumors in vitro and in vivo, the effect of MHI-25 on the growth of C4-2 tumors in vitro (FIG. 9 top panel) and in mice (FIG. 9 bottom panel) was studied.

MCF-7 = assay: uptake of IR783 in cell lines: breast; type: cell-based, human
From the text: as §1

HepG2 = assay: uptake of IR783 in cell lines: liver; type: cell-based, human
From the text: as §1

[4] = Procedure: Mice were injected with 20 μg/Kg of IR783 and IR780 (which was 100× of the imaging dose which was 0.2 μg/Kg) and results were compared for a 28 day period. […] Zero grams means the mouse died. ICG is a FDA approved dye used for several diagnostic purposes. ICG is considered to be nontoxic. ICG is used here as a measure of the toxicity of the tested compounds.
Toxicity test of dye based on body weight gained during the treatment period from 0 to 14 days.

HeLa = assay: uptake of IR783 in cell lines: cervical; type: cell-based, human
From the text: as §1

K562 = assay: uptake of IR783 in cell lines: leukemia; type: cell-based, human
From the text: as §1

H358 = assay: uptake of IR783 in cell lines: lung; type: cell-based, human
From the text: as §1

RT-4, T24, 253J, TCC = assay: uptake of IR783 in cell lines: bladder; type: cell-based, human
From the text: as §1

ARCaPM and PC3 tumors = assay: IR783 imaging of pre-established tumors in live mice, 5 nmol tail vein (FIG. 18); type: in vivo, mouse
From the text: Intratibial ARCaPM tumors were also established in live mice prior to administration of IR783. 5 nmol of IR783 was given through the tail vein and imaged using a Kodak multimodal imaging system.
Subcutaneous ARCaPM and PC3 (four tumors with different sizes) tumors were established in live mice prior to the administration of IR-783. 5 nmol of IR783 were given to mice through tail vein and imaged using Kodak multimodal-imaging system.

[5] = system: subcutaneous ARCaPM tumor, intratibial C4-2 tumor; assay: IR783 imaging of human prostate cancer xenografts in nude mice (FIG. 15); type: in vivo, mouse
Procedure: The mice were injected i.p with IR783 at 0.2 μg/kg. Imaging was performed 24 hours later with the Kodak multimodal-imaging system. Histopathological analysis (H/E) confirmed the presence of tumors. […] Histopathology confirmed the necrotic status of the tumors.

SN12C, ACHN = assay: uptake of IR783 in cell lines: renal; type: cell-based, human
From the text: as §1

CC1(C)C(=CC=C2CCCC(C=CC3=[N+](CCCCS(=O)(=O)[O-])c4ccccc4C3(C)C)=C2Cl)N(CCCCS(=O)(=O)[O-])c2ccccc21.[Na+] [IR783]
lowest number of cancer cells detected [1]: 10 human prostate cancer cells/ml of human blood | fluorescence of normal periphery mononucleated cells ([1]; 37° C., 30 minutes): very low to background NIR fluorescence | fluorescence of cancer cells ([1]; 37° C., 30 minutes, whole blood of a healthy donor): strong fluorescence signals in the cytoplasm | imaging of spontaneous prostate tumor ([2]; 24 hours after administration): could be imaged | dye retention in formalin fixed tissues ([2]; data not shown): several weeks | tolerance of dye accumulation in tumors to fixation ([2]; mouse, in vivo): can tolerate fixation with both paraformaldehyde and glutaraldehyde | Uptake (VEC): Very low | Uptake [3]: Strong | Uptake (RAW): Very low | Uptake (HaCaT): Very low | Uptake (BMC): Very low | Uptake (RCC): Strong | Uptake (NPF): Very low | effect on pre-established tumors (C4-2 tumors): induced marked cell death, with tumors almost eliminated at Day 5 | Uptake (P69): Very low | Uptake (HEK293): Low | cell death in culture (C4-2; 10 uM): did not induce cell death | cell death in culture (C4-2; 100 uM): induced a significant cell death | apoptosis (C4-2; 100 μM, exposure 24 hrs): clearly induced apoptosis | Uptake (MCF-7): Strong | Uptake (HepG2): Strong | toxicity ([4]; 20 μg/Kg (100× of the imaging dose), 28 day period): not toxic | body weight ([4]; dose 1X (imaging dose 0.2 μg/Kg), 0 day): 20.29 g | body weight ([4]; dose 1X, 1 day): 20.20 g | body weight ([4]; dose 1X, 2 day): 20.23 g | body weight ([4]; dose 1X, 3 day): 20.32 g | body weight ([4]; dose 1X, 4 day): 20.34 g | body weight ([4]; dose 1X, 5 day): 21.00 g | body weight ([4]; dose 1X, 6 day): 21.87 g | body weight ([4]; dose 1X, 7 day): 22.32 g | body weight ([4]; dose 1X, 14 day): 23.91 g | body weight ([4]; dose 1X, 28 day): 24.86 g | body weight ([4]; dose 10X, 0 day): 20.57 g | body weight ([4]; dose 10X, 1 day): 20.61 g | body weight ([4]; dose 10X, 2 day): 20.59 g | body weight ([4]; dose 10X, 3 day): 20.98 g | body weight ([4]; dose 10X, 4 day): 21.02 g | body weight ([4]; dose 10X, 5 day): 21.34 g | body weight ([4]; dose 10X, 6 day): 21.76 g | body weight ([4]; dose 10X, 7 day): 22.54 g | body weight ([4]; dose 10X, 14 day): 24.01 g | body weight ([4]; dose 10X, 28 day): 24.87 g | body weight ([4]; dose 100X (20 μg/Kg), 0 day): 19.85 g | body weight ([4]; dose 100X, 1 day, zero grams means the mouse died): 19.74 g | body weight ([4]; dose 100X, 2 day, zero grams means the mouse died): 20.01 g | body weight ([4]; dose 100X, 3 day, zero grams means the mouse died): 20.39 g | body weight ([4]; dose 100X, 4 day, zero grams means the mouse died): 20.43 g | body weight ([4]; dose 100X, 5 day, zero grams means the mouse died): 21.01 g | body weight ([4]; dose 100X, 6 day, zero grams means the mouse died): 21.23 g | body weight ([4]; dose 100X, 7 day, zero grams means the mouse died): 22.00 g | body weight ([4]; dose 100X, 14 day, zero grams means the mouse died): 23.76 g | body weight ([4]; dose 100X, 28 day, zero grams means the mouse died): 24.61 g | Uptake (HeLa): Strong | Uptake (K562): Strong | Uptake (H358): Strong | Uptake (RT-4, T24, 253J, TCC): Strong | tumor images (ARCaPM and PC3 tumors; intratibial ARCaPM tumors, data not shown): Clear tumor images were detected | tumor images (ARCaPM and PC3 tumors; subcutaneous ARCaPM and PC3 tumors): clear tumor images can be detected | dye in normal organs removed from hosts ([5]; fluorescence imaging of all organs, data not shown): lack of uptake of the dye in normal organs | dye in metabolically active C4-2 tumors in mouse tibia ([5]; mouse, in vivo): retained the dye | dye retention in necrotic tumors on the contralateral side ([5]; mouse, in vivo): did not | smallest tumor size detected ([5]; orthotopic or bone metastatic lesions, data not shown): ~2 mm^3 | uptake by xenografts and metastatic bone lesions ([5]; subcutaneous and intra-tibial sites of nude mice, 0.2 μg/kg i.p, 24 hours): preferentially taken up | Uptake (SN12C, ACHN): Strong
